In patent US20160113932A1, “TREATMENT OF CANCERS USING PI3 KINASE ISOFORM MODULATORS” (INFINITY PHARMACEUTICALS, INC., priority 2013, published 2016):

Experiments:
PI3K δ = PI3K δ (Homo sapiens, UniProt O00329); assay: PI3K lipid kinase inhibition assay (TLC or HTRF), PI3K δ; assay type: biochemical; parameters: purchased Upstate; conditions: In Vitro
Text: (§1) Other commercial kits or systems for assaying PI3K activities are available. […] An exemplary system is PI 3-Kinase (human) HTRF™ Assay from Upstate.

PI3K α = target: T1, PI3K α (Homo sapiens, UniProt P42336); assay: PI3K lipid kinase inhibition assay (TLC or HTRF), PI3K α; assay type: biochemical; conditions: In Vitro
T1 construct: purchased Upstate
Text: as §1

PI3K γ = target: T2, PI3K γ (Homo sapiens, UniProt P48736); assay: PI3K lipid kinase inhibition assay (TLC or HTRF), PI3K γ; assay type: biochemical; conditions: In Vitro
T2 construct: purchased Sigma
Text: as §1

PI3K β = target: T3, PI3K β (Homo sapiens, UniProt P42338); assay: PI3K lipid kinase inhibition assay (TLC or HTRF), PI3K β; assay type: biochemical; conditions: In Vitro
T3 construct: purchased Upstate
Text: as §1

Loucy = assay: T-ALL growth inhibition; assay type: cell-based, human; conditions: Loucy ALL cells, various concentrations
Method: To further explore the individual contributions of the varying PI3K isoforms on T-ALL cell growth, Loucy ALL cells were treated with doxorubicin and various PI3K inhibitors as shown in FIG. 32 at various concentrations as denoted in the figure.

MJ = assay: CTCL cytotoxicity, 72 hours; assay type: cell-based; conditions: MJ cells
Method: MJ and HuT78 cells were grown in IMDM 20% FBS, and HH cells were grown in RPMI 10% FBS.

PI3K δ, sequence (O00329 whole entry): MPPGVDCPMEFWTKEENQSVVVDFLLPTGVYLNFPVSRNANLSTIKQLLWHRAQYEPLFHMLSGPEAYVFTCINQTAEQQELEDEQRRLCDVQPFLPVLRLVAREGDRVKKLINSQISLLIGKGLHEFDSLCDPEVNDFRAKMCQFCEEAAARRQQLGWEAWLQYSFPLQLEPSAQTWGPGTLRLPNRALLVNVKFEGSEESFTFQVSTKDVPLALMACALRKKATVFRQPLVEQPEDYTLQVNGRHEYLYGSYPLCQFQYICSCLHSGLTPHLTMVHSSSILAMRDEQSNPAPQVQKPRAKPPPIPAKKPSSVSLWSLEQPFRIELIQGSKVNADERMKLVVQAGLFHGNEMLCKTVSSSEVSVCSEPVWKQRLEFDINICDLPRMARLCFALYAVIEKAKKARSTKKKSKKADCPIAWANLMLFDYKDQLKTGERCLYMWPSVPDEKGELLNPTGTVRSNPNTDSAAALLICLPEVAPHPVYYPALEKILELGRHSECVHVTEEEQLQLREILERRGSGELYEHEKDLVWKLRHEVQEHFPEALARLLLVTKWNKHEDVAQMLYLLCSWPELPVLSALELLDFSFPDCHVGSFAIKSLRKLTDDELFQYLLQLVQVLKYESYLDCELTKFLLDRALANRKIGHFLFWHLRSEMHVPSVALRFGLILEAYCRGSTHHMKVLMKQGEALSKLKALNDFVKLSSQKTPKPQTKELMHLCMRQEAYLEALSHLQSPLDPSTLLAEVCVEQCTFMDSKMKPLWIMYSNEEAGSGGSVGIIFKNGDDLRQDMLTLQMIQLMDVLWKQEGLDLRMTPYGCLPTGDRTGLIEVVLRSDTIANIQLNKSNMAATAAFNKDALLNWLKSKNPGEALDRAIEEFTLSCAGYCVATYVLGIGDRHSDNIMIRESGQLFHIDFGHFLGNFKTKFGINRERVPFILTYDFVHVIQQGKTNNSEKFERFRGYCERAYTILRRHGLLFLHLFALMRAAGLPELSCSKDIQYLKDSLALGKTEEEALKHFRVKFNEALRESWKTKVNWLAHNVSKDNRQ
PI3K δ, sequence (P27986 whole entry partner): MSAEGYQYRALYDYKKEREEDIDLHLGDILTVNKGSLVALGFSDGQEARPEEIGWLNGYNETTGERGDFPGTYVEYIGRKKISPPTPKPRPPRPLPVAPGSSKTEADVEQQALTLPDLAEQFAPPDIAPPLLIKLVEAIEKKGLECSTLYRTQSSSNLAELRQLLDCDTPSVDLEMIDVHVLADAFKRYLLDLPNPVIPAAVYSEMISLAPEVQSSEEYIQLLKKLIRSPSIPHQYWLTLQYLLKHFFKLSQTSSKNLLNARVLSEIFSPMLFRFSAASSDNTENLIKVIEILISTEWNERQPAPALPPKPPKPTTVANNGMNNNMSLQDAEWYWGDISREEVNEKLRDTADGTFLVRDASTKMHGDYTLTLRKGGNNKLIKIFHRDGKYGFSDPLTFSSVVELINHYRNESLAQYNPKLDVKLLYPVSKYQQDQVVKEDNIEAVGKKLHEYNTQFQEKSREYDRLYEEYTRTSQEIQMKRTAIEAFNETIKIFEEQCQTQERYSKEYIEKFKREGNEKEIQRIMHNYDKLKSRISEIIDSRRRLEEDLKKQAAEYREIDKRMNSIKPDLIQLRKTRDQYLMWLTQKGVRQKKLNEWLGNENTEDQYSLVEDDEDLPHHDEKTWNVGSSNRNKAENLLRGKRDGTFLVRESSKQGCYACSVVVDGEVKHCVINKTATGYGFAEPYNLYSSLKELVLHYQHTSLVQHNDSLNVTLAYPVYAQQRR
T2 sequence (P48736 whole entry): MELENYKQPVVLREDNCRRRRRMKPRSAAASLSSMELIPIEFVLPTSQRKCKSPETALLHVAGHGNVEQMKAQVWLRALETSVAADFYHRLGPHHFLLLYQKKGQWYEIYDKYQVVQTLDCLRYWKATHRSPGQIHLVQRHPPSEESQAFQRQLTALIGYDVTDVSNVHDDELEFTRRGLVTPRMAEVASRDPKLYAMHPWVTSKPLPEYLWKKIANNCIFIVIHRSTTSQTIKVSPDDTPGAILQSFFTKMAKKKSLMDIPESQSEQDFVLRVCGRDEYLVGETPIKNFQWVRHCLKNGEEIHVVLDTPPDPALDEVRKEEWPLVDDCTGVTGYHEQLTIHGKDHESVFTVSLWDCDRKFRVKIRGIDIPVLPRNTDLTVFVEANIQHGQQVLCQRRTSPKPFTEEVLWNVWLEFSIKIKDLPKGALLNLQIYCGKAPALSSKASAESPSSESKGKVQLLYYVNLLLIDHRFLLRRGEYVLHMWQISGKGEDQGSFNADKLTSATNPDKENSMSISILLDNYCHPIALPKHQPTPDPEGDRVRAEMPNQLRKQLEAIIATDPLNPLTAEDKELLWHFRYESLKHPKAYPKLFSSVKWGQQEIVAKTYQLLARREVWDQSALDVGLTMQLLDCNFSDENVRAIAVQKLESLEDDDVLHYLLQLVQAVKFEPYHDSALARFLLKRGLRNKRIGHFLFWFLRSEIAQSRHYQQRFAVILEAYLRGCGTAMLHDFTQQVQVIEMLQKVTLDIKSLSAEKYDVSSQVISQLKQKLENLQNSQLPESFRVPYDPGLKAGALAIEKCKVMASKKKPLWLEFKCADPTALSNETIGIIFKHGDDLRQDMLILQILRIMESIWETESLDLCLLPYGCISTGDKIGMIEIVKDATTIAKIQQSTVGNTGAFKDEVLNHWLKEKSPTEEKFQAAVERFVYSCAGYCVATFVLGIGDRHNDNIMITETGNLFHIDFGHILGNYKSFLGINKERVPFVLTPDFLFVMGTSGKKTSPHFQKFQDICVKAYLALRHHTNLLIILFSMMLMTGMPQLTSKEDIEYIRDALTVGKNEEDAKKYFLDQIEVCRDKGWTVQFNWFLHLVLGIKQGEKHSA
T3 sequence (P42338 whole entry): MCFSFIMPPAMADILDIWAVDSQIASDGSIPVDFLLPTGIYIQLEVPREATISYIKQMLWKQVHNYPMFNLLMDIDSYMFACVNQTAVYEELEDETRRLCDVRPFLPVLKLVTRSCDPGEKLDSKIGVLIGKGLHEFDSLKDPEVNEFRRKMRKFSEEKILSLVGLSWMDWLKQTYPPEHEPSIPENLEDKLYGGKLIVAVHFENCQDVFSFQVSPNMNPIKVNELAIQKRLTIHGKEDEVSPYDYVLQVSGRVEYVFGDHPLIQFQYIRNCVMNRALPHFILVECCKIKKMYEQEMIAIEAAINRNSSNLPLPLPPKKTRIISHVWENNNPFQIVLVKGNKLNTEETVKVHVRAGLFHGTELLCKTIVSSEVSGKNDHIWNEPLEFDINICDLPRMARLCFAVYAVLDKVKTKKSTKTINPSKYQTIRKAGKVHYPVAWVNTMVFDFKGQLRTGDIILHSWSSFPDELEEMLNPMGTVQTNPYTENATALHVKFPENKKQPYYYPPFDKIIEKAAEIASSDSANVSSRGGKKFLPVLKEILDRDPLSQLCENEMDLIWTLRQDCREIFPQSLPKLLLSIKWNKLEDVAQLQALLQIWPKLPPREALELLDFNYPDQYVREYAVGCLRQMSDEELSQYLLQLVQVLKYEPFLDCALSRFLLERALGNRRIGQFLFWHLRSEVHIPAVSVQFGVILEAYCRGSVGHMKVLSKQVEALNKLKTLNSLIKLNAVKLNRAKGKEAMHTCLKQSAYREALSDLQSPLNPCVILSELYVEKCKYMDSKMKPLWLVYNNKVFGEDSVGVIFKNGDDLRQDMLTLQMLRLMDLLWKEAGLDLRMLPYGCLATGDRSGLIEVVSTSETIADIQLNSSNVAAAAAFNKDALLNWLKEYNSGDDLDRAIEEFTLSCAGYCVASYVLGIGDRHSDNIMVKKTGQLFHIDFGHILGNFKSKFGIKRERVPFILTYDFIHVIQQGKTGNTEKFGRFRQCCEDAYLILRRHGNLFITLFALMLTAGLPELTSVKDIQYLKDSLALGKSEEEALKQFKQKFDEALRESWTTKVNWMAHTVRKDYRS
T3 sequence (P27986 whole entry partner): as the sequence (P27986 whole entry partner) above
T1 sequence (P42336 whole entry): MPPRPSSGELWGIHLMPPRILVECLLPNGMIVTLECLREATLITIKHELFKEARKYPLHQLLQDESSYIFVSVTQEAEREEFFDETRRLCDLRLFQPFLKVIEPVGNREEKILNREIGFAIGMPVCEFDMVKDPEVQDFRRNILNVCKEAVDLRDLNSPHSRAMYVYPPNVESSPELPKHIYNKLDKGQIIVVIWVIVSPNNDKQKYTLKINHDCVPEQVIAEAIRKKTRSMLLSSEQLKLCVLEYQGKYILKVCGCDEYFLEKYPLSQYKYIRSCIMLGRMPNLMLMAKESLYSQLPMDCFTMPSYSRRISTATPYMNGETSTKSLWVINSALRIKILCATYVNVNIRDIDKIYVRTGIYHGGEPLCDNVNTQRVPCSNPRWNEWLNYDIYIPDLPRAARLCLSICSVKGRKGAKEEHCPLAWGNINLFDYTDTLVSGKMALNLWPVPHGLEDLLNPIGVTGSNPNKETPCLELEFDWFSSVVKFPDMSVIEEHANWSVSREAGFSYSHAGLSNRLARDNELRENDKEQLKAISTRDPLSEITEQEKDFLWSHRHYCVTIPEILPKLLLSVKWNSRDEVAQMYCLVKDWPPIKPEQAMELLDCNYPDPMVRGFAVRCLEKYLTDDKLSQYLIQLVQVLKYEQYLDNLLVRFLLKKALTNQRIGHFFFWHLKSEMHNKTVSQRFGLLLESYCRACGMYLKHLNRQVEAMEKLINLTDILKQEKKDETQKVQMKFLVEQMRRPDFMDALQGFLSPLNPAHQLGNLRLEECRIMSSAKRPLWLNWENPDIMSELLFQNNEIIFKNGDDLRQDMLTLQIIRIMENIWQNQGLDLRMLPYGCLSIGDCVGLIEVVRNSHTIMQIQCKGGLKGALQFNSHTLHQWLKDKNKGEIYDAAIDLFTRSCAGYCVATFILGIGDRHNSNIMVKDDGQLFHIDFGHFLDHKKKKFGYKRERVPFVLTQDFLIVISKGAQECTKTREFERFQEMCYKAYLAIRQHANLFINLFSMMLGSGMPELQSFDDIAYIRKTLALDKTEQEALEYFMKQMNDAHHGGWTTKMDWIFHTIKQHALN
T1 sequence (P27986 whole entry partner): as the sequence (P27986 whole entry partner) above

SMILES	IC50 (PI3K δ) [nM]	IC50 (PI3K γ) [nM]	also measured
Cc1cccc2cc(C(C)Nc3nc(Cl)ncc3N)n(-c3ccccc3)c(=O)c12 (centres unmarked) [Compound 322]	> 10000	> 10000	IC50 (PI3K α): > 10000 nM; IC50 (PI3K β): > 10000 nM
COc1cccc2c1C(=O)c1c(O)c3c(c(O)c1C2=O)C[C@@](O)(C(=O)CO)C[C@@H]3O[C@H]1C[C@H](N)[C@H](O)[C@H](C)O1 [doxorubicin, reference compound]			percent inhibition of Loucy cells with dose (Loucy): different pattern
CC[C@H](Nc1ncnc2[nH]cnc12)c1nc2cccc(F)c2c(=O)n1-c1ccccc1 [GS-1101, (S)-2-(1-(9H-purin-6-ylamino)propyl)-5-fluoro-3-phenylquinazolin-4(3H)-one, reference compound]			cytotoxicity, sensitivity (MJ): resistant

Further lines, with some results ahead:

IC50 (PI3K δ) [nM]	IC50 (PI3K γ) [nM]	SMILES	also measured
< 100		Cc1cccc2cc(Cn3nc(-c4ccc(Cl)c(O)c4)c4c(N)ncnc43)n(C(C)C)c(=O)c12 [Compound 123]	
< 1000	< 10000	Cc1cccnc1-n1c(Cn2nc(-c3cccc(O)c3)c3c(N)ncnc32)cc2ccccc2c1=O [Compound 94]	
< 10000	> 10000	Cc1ccccc1-n1c(Cn2cnc3c(N)ncnc32)cc2cccc(C)c2c1=O [Compound 5]	
